# Source: patent US8951997B2, “Substituted isoquinoline derivative” (D. Western Therapeutics Institute, Inc., priority 2009, dated 2015)
# Structures can show the parent of a compound that is named as a salt.
# Tested on: rabbits (New Zealand White)
# Experiment: Ocular hypotensive effect in rabbits
# Format: in vivo, rabbit
# Conditions: Oryctolagus cuniculus, topical, 0.04 mL dropped to one eye, vehicle to contralateral eye, test compound solution concentration 10 (W/V), read-out: Maximum ocular hypotensive rate
# Procedure: The compound of the present invention was administered to rabbits (New Zealand White, sex: male, 3 to 7 per group) and evaluated for its ocular hypotensive effect.
# Each test compound was dissolved in a vehicle (1.04 g of sodium dihydrogen phosphate dihydrate and 0.5 g of sodium chloride dissolved in purified water and then adjusted to pH 7.0 with sodium hydroxide to make the total amount to 100 mL) to prepare a test compound solution with a concentration of 10 (W/V).
# The intraocular pressures of the rabbits were measured using Tiolat TonoVet handheld tonometer immediately before administration of test compound. The test compound solution and the vehicle were dropped at a volume of 0.04 mL to one eye and the contralateral eye, respectively, and the intraocular pressures were measured over time in the same way as above. The rate of the intraocular pressure of the eye receiving the test compound solution to that of the eye receiving the vehicle was calculated as an ocular hypotensive rate.
row,Structure (SMILES),inhibition in vivo at 10 % [%]
1,"C[C@H]1CNCCCN1S(=O)(=O)c1ccc2cnccc2c1 [Example 12, (S)-6-(2-methyl-1,4-diazepan-1-ylsulfonyl)isoquinoline dihydrochloride]",≥ 15
2,"CN[C@H]1CCN(S(=O)(=O)c2ccc3cnccc3c2)C1 [Example 10, (S)-6-{3-(N-methylamino)pyrrolidin-1-ylsulfonyl}isoquinoline dihydrochloride]",5 to 15
3,"C[C@@H]1CNCCCN1S(=O)(=O)c1cc2ccncc2cc1F [Example 25, (R)-6-(2-methyl-1,4-diazepan-1-ylsulfonyl)-7-fluoroisoquinoline dihydrochloride]",≥ 15
4,"C[C@@H]1CCCNCCN1S(=O)(=O)c1ccc2cnccc2c1 [Example 37, (R)-6-(8-methyl-1,4-diazocan-1-ylsulfonyl)isoquinoline dihydrochloride]",≥ 15
5,"C[C@@H]1CNCCCCN1S(=O)(=O)c1ccc2cnccc2c1[N+](=O)[O-] [Example 39, (R)-6-(2-methyl-1,4-diazocan-1-ylsulfonyl)-5-nitroisoquinoline dihydrochloride]",≥ 15
6,"CC[C@@H]1CNCCCN1S(=O)(=O)c1ccc2cnccc2c1 [Example 19, (R)-6-(2-ethyl-1,4-diazepan-1-ylsulfonyl)isoquinoline dihydrochloride]",≥ 15
7,"CNCC(=O)N1CCCCN(S(=O)(=O)c2ccc3cnccc3c2)[C@H](C)C1 [Example 48, (R)-6-(4-sarcosyl-2-methyl-1,4-diazocan-1-ylsulfonyl)isoquinoline dihydrochloride]",5 to 15
8,"C[C@H]1CNCCCCN1S(=O)(=O)c1ccc2cnccc2c1 [Example 24, (S)-6-(2-methyl-1,4-diazocan-1-ylsulfonyl)isoquinoline dihydrochloride]",≥ 15
9,"NCC(=O)N1CCCN(S(=O)(=O)c2ccc3cnccc3c2)CC1 [Example 45, 6-(4-glycyl-1,4-diazepan-1-ylsulfonyl)isoquinoline dihydrochloride]",5 to 15
10,"CC1CCNCCN1S(=O)(=O)c1ccc2cnccc2c1 (stereo not shown) [Example 17, 6-(7-methyl-1,4-diazepan-1-ylsulfonyl)isoquinoline dihydrochloride]",≥ 15
11,"C[C@@H]1CNC[C@@H](C)N1S(=O)(=O)c1ccc2cnccc2c1 [Example 40, (2R,6R)-6-(2,6-dimethylpiperazin-1-ylsulfonyl)isoquinoline dihydrochloride]",≥ 15
12,"C[C@@H]1CNCCCCCN1S(=O)(=O)c1ccc2cnccc2c1 [Example 33, (R)-6-(2-methyl-1,4-diazonan-1-ylsulfonyl)isoquinoline dihydrochloride]",≥ 15
13,"O=S(=O)(c1ccc2cnccc2c1)N1CCOCC1 [Example 9, 6-(morpholin-1-ylsulfonyl)isoquinoline hydrochloride]",5 to 15
14,"C[C@@H]1CN(C(=O)CN)CCCCN1S(=O)(=O)c1ccc2cnccc2c1 [Example 47, (R)-6-(4-glycyl-2-methyl-1,4-diazocan-1-ylsulfonyl)isoquinoline dihydrochloride]",5 to 15
15,"N[C@@H]1CCN(S(=O)(=O)c2ccc3cnccc3c2)C1 [Example 2, (R)-6-(3-aminopyrrolidin-1-ylsulfonyl)isoquinoline dihydrochloride]",≥ 15
16,"C[C@H]1CCNC[C@H](C)N1S(=O)(=O)c1ccc2cnccc2c1 [Example 41, (2S,7S)-6-(2,7-dimethyl-1,4-diazepan-1-ylsulfonyl)isoquinoline dihydrochloride]",≥ 15
17,"C[C@@H]1CCNCCCN1S(=O)(=O)c1ccc2cnccc2c1 [Example 38, (R)-6-(2-methyl-1,5-diazocan-1-ylsulfonyl)isoquinoline dihydrochloride]",≥ 15
18,"CC1(C)CNCCCN1S(=O)(=O)c1ccc2cnccc2c1 [Example 22, 6-(2,2-dimethyl-1,4-diazepan-1-ylsulfonyl)isoquinoline dihydrochloride]",≥ 15
19,"C[C@@H]1CNCCCCN1S(=O)(=O)c1ccc2cnccc2c1Br [Example 23, (R)-5-bromo-6-(2-methyl-1,4-diazocan-1-ylsulfonyl)isoquinoline dihydrochloride]",≥ 15
20,"O=S(=O)(c1cc(F)c2cnccc2c1)N1CCCNCC1 [Example 6, 6-(1,4-diazepan-1-ylsulfonyl)-8-fluoroisoquinoline dihydrochloride]",5 to 15

row,Structure (SMILES),inhibition in vivo at 10 % [%]
1,"C[C@@H]1CNCCNCCN1S(=O)(=O)c1ccc2cnccc2c1 [Example 44, (R)-6-(2-methyl-1,4,7-triazonan-1-ylsulfonyl)isoquinoline trihydrochloride]",≥ 15
2,"C[C@H]1CNCCN1S(=O)(=O)c1ccc2cnccc2c1 [Example 13, (S)-6-(2-methylpiperazin-1-ylsulfonyl)isoquinoline dihydrochloride]",≥ 15
3,"C[C@@H]1CNC/C=C\CN1S(=O)(=O)c1ccc2cnccc2c1 [Example 8, (R,Z)-6-(2-methyl-2,3,4,5-tetrahydro-1,4-diazocin-1(8H)-ylsulfonyl)isoquinoline dihydrochloride]",≥ 15
4,"CC[C@@H]1CNCCCCN1S(=O)(=O)c1ccc2cnccc2c1 [Example 20, (R)-6-(2-ethyl-1,4-diazocan-1-ylsulfonyl)isoquinoline dihydrochloride]",≥ 15
5,"O=S(=O)(c1ccc2cnccc2c1Br)N1CCCNCC1 [Example 5, 5-bromo-6-(1,4-diazepan-1-ylsulfonyl)isoquinoline dihydrochloride]",≥ 15
6,"C[C@H]1CNCCCCCN1S(=O)(=O)c1ccc2cnccc2c1 [Example 28, (S)-6-(2-methyl-1,4-diazonan-1-ylsulfonyl)isoquinoline dihydrochloride]",≥ 15
7,"C[C@@H]1CNCCCN1S(=O)(=O)c1ccc2cnccc2c1Br [Example 29, (R)-5-bromo-6-(2-methyl-1,4-diazepan-1-ylsulfonyl)isoquinoline dihydrochloride]",≥ 15
8,"O=S(=O)(c1ccc2cnccc2c1)N1CCNCC1 [Example 1, 6-(piperazin-1-ylsulfonyl)isoquinoline dihydrochloride]",≥ 15
9,"NC1CCN(S(=O)(=O)c2ccc3cnccc3c2)CC1 [Example 4, 6-(4-aminopiperidin-1-ylsulfonyl)isoquinoline dihydrochloride]",5 to 15
10,"C[C@@H]1CCNC[C@H](C)N1S(=O)(=O)c1ccc2cnccc2c1 [Example 36, (2S,7R)-6-(2,7-dimethyl-1,4-diazepan-1-ylsulfonyl)isoquinoline dihydrochloride]",≥ 15
11,"O=S(=O)(c1ccc2cnccc2c1)N1C[C@@H]2C[C@H]1CN2 [Example 7, 6-{(1S,4S)-2,5-diazabicyclo[2.2.1]heptan-2-ylsulfonyl}isoquinoline dihydrochloride]",≥ 15
12,"C[C@@H]1CNCCOCCN1S(=O)(=O)c1ccc2cnccc2c1 [Example 43, (R)-6-(5-methyl-1,4,7-oxadiazonan-4-ylsulfonyl)isoquinoline dihydrochloride]",≥ 15
13,"O=S(=O)(c1ccc2cnccc2c1)N1CCCNCC1 [Example 3, 6-(1,4-diazepan-1-ylsulfonyl)isoquinoline dihydrochloride]",≥ 15
14,"O=S(=O)(c1ccc2cnccc2c1)N1CCCCNCC1 [Example 21, 6-(1,4-diazocan-1-ylsulfonyl)isoquinoline dihydrochloride]",≥ 15
15,"C[C@@H]1CCNCCN(S(=O)(=O)c2ccc3cnccc3c2)C1 [Example 31, (R)-6-(7-methyl-1,4-diazocan-1-ylsulfonyl)isoquinoline dihydrochloride]",≥ 15
16,"CC1CN(S(=O)(=O)c2ccc3cnccc3c2)CCCN1 (stereo not shown) [Example 16, 6-(3-methyl-1,4-diazepan-1-ylsulfonyl)isoquinoline dihydrochloride]",≥ 15
17,"O=S(=O)(c1ccc2cnccc2c1)N1CCCNC[C@H]1CF [Example 26, (S)-6-(2-fluoromethyl-1,4-diazepan-1-ylsulfonyl)isoquinoline dihydrochloride]",≥ 15
18,"C[C@@H]1CCN(S(=O)(=O)c2ccc3cnccc3c2)CCNC1 [Example 30, (R)-6-(6-methyl-1,4-diazocan-1-ylsulfonyl)isoquinoline dihydrochloride]",≥ 15
19,"O=S(=O)(c1ccc2cnccc2c1)N1CCCCNCC1CF (stereo in doubt) [Example 27, (R)-6-(2-fluoromethyl-1,4-diazocan-1-ylsulfonyl)isoquinoline dihydrochloride]",≥ 15
20,"C[C@H]1CCNCCCN1S(=O)(=O)c1ccc2cnccc2c1 [Example 42, (S)-6-(2-methyl-1,5-diazocan-1-ylsulfonyl)isoquinoline dihydrochloride]",≥ 15
